# Test results published in ChEMBL document CHEMBL1201862, “PubChem BioAssay data set” (2004).
# Calls of active or inactive are those of the source.
# What was measured:
# [1] = biological target: 5-hydroxytryptamine receptor 1A (Homo sapiens, UniProt P08908); assay type: functional
# [2] = biological target: Mitogen-activated protein kinase 10 (Homo sapiens, UniProt P53779); assay: Dose response biochemical screening assay for inhibitors of c-Jun N-Terminal Kinase 3 (JNK3). [Related pubchem assays: 746 ]
# Mitogen-activated protein kinase 10, sequence (P53779 whole entry): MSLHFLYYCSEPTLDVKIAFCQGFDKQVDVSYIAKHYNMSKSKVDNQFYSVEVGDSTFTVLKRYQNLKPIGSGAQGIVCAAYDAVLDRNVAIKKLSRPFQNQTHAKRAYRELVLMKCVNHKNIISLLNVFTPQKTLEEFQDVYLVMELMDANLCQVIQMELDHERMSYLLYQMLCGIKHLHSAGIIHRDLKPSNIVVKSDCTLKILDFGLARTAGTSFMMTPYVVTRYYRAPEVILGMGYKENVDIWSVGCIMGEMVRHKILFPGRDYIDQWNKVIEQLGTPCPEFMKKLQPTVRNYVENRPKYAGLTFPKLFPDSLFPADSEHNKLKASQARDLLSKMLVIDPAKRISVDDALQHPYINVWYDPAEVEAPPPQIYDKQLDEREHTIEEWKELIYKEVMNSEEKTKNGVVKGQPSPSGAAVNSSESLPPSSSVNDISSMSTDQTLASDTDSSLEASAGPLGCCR
# H4 = assay: Luminescence Cell-Based Dose Response HTS to Identify Activators of 5'UTR Stem-Loop Driven Prion Protein mRNA Translation in H4 Neuroglioblastoma Cells. [Related pubchem assays: 1829 (Project Summary), 1814 (Primary HTS)]; assay type: functional; settings: Homo sapiens
# [3] = biological target: T1, Short transient receptor potential channel 4 (Mus musculus, UniProt Q9QUQ5); assay: calcium entry via TRPC4 opening agents – cell-based, HEK293 TRPC4/mu-opioid, Fluo-4 calcium, dose response (AID 434937); assay type: functional
# T1 sequence (Q9QUQ5 whole entry): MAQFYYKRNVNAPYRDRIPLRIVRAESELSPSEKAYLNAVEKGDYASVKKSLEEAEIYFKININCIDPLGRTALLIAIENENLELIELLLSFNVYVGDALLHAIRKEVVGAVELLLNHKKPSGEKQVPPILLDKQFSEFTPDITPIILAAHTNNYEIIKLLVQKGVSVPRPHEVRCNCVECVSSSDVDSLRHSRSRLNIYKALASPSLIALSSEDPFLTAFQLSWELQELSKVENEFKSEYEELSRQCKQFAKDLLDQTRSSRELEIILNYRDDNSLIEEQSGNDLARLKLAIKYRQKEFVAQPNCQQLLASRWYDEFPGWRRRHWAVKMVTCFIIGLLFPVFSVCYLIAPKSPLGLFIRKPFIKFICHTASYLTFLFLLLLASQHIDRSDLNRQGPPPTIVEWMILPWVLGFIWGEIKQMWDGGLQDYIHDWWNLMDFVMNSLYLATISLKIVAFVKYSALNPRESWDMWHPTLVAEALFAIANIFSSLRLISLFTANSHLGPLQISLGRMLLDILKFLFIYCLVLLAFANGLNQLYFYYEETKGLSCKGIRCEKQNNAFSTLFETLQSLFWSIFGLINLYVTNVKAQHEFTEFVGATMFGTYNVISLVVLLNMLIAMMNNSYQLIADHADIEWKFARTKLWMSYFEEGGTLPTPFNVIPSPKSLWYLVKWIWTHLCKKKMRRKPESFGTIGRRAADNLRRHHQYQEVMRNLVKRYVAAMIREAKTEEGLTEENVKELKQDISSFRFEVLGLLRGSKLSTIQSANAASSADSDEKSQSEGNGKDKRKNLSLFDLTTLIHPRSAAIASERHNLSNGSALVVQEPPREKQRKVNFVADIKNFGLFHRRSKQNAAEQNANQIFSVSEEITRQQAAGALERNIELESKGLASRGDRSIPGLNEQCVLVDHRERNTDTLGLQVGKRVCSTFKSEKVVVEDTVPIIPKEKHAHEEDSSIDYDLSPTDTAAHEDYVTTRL
# Cytochrome P450 3A4 = Cytochrome P450 3A4 (Homo sapiens, UniProt P08684);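 further: CYP3A4 tested as one member of a cytochrome P450 panel screen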
# Cytochrome P450 3A4, sequence (P08684 whole entry): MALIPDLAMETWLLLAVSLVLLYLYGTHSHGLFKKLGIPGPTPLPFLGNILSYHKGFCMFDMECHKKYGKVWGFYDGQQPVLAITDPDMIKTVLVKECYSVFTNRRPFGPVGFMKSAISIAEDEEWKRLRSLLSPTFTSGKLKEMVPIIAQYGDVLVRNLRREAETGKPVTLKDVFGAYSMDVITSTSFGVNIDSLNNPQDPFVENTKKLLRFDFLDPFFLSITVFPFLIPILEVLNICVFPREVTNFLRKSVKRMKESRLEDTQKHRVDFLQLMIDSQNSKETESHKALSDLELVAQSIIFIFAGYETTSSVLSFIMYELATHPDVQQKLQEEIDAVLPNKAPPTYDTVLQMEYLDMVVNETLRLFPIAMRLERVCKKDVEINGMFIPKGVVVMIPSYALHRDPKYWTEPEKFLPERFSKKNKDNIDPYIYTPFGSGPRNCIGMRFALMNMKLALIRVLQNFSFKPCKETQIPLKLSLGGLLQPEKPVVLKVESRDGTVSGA
# [4] = NIH3T3 cell viability loss – ATP luminescence, mouse fibroblasts, counter-screen, dose response (AID 2010); assay type: functional, cell-based;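 further: cells exposed to compound for about 90 hours before reading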
# [5] = microbe, parasite or virus in culture; assay type: functional; settings: Mycobacterium tuberculosis
# [6] = M. tuberculosis growth inhibition, HTS (AID 449762); assay type: functional
# [7] = Trypanosoma cruzi growth suppression in host cells – NIH3T3 host cells, beta-gal luminescence, confirmation (AID 2044); assay type: functional, cell-based;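 further: intracellular parasites grown in NIH/3T3 mouse fibroblasts as host cells; luminescent beta-galactosidase reporter signal from transgenic T. cruzi replicating inside host cells; inhibitors lower the luminescence signal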
# [8] = Trypanosoma cruzi replication inhibitors in host cells – cell-based, plate reader, dry powder samples, dose response (AID 651845); assay type: functional
# [9] = host muscle cell viability loss – plate reader, dry powder, counter-screen for T. cruzi inhibitor project, dose response (AID 651895); assay type: functional, cell-based
# [10] = African trypanosome bloodstream form growth inhibition – STIB900 strain, plate reader, dry powder, dose response (AID 651894); assay type: functional, cell-based
# [11] = antimalarial activity against erythrocytic parasites – NF54 strain, plate reader, dry powder, dose response (AID 651889); assay type: functional, cell-based
# [12] = anti-trypanosomal activity in BESM host cells – imaging, CA-I/72 strain, bovine embryo skeletal muscle, dry powder, dose response (AID 651885); assay type: functional, cell-based
# [13] = T. cruzi growth inhibition in host cells, dose response, cell-based, plate reader, dry powder, set 2 (AID 652275); assay type: functional
# [14] = intracellular Trypanosoma cruzi inhibitors in host cells – cell-based, plate reader, cherry-pick samples, set 3, dose response (AID 651818); assay type: functional;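 further: compounds incubated with infected cells for about four days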
# [15] = intracellular Chagas parasite inhibition in myoblasts – Tulahuen strain, L-6 host cells, dry powder, dose response (AID 651890); assay type: functional, cell-based
# [16] = antileishmanial activity on axenic amastigotes – plate reader, dry powder, dose response (AID 651892); assay type: functional, cell-based
# [17] = Luminescence Cell-Based Dose Retest to Confirm Inhibitors of Cancer Stem Cells. [Related pubchem assays (depositor defined):AID2717, AID2721]; assay type: functional; settings: Homo sapiens
# [18] = P. falciparum Dd2 growth inhibitors, dose response, SYBR Green, cherry-picked samples (AID 1159567); assay type: functional, cell-based
# [19] = growth inhibition of yeast DHODH-expressing 3D7 parasites – SYBR Green, dry powder samples, dose response (AID 1159570); assay type: functional, cell-based;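 further: parasite growth measured after 72 hours of compound exposure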
# [20] = toxicity to human hepatoma HepG2 cells – cell-based, cherry-picked samples, cytotoxicity control, dose response (AID 1159577); assay type: functional
# [21] = Dd2 malaria parasite growth inhibition potency – SYBR Green, dry powder samples, dose response (AID 1159566); assay type: functional, cell-based;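 further: potency for growth inhibition with lower SYBR green DNA signal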
# [22] = growth inhibition of PfATP4-mutant resistant parasites – NITD609-resistant line, SYBR Green, dry powder, dose response (AID 1159571); assay type: functional, cell-based;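 further: parasites synchronized at ring stage by sorbitol before testing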
# [23] = toxicity to human HepG2 hepatoma cells – cell-based, plate reader, dry powder samples, cytotoxicity control, dose response (AID 1159569); assay type: functional;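 further: inhibitor potency with signal falling toward the positive control level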
# 5-hydroxytryptamine receptor 1A, sequence (P08908 whole entry): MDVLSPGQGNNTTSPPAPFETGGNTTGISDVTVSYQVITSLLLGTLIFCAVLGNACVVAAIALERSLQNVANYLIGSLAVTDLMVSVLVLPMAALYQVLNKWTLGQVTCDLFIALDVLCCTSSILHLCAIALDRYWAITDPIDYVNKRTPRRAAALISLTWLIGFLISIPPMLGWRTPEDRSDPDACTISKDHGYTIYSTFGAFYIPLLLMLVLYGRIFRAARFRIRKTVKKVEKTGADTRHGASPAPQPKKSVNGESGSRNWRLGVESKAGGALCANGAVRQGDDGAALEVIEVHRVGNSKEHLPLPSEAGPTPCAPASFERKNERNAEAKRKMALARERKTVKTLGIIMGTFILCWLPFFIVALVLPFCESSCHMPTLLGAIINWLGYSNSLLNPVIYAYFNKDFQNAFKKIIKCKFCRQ
smiles,measurement,setting,value
Cc1[nH]c2c(C(F)(F)F)cccc2c1CCN,EC50,[1],> 50000 nM (not active)
Oc1[nH]c2ccccc2c1/C=N/c1ccc2c(c1)OCO2,IC50,[2],> 93100 nM (not active)
same,EC50,H4,1250 nM (active)
c1ccc2sc(C3CCCNC3)nc2c1 (stereo not drawn),EC50,[1],> 50000 nM (not active)
same,EC50,[3],9.3 nM (active)
COc1ccc2c(c1)c1ncn(Cc3ccco3)c(=O)c1n2C,IC50,[2],90000 nM (not active)
Cc1ccccc1C1C(C#N)=C2N=C(N)c3c(sc4c3CCCCC4)N2C2=C1C(=O)CC(C)(C)C2 (stereo not drawn),AC50,Cytochrome P450 3A4,1120 nM (inconclusive)
same,EC50,[4],> 60000 nM (inconclusive)
same,CC50,[5],33100 nM (active)
same,IC50,[6],> 100000 nM (active)
same,EC50,[7],1520 nM (active)
C[C@@H]1CN([C@H](C)CO)C(=O)c2cccc(NC(=O)c3ccncc3)c2O[C@H]1CN(C)Cc1ccc(Oc2ccccc2)cc1,AC50,[8],5.21 nM (active)
same,IC50,[9],13300 nM (inactive)
same,IC50,[10],242 nM (active)
same,IC50,[11],820 nM (inactive)
same,IC50,[12],30 nM (active)
same,AC50,[13],1.7 nM (active)
same,AC50,[14],80 nM (active)
same,IC50,[15],31 nM (active)
same,IC50,[16],43700 nM (inactive)
COc1ccc(N/N=C(\C=O)C(=O)c2cccs2)cc1,AC50,[17],3430 nM (active)
same,IC50,[6],> 100000 nM (active)
COc1ccc(NC(=O)Nc2ccc3c(c2)CC(=O)N([C@H](C)CO)C[C@H](C)[C@@H](CN(C)Cc2ccc(C(=O)Nc4ccccc4N)cc2)O3)cc1,AC50,[18],2220 nM (active)
same,AC50,[19],2300 nM (active)
same,AC50,[20],> 39000 nM (inactive)
same,AC50,[21],1500 nM (active)
same,AC50,[22],2040 nM (active)
same,AC50,[23],> 100000 nM (inactive)
